The experiment concerns the target T1, Acetylcholinesterase (Bos taurus, UniProt P23795).
T1 sequence (P23795 whole entry): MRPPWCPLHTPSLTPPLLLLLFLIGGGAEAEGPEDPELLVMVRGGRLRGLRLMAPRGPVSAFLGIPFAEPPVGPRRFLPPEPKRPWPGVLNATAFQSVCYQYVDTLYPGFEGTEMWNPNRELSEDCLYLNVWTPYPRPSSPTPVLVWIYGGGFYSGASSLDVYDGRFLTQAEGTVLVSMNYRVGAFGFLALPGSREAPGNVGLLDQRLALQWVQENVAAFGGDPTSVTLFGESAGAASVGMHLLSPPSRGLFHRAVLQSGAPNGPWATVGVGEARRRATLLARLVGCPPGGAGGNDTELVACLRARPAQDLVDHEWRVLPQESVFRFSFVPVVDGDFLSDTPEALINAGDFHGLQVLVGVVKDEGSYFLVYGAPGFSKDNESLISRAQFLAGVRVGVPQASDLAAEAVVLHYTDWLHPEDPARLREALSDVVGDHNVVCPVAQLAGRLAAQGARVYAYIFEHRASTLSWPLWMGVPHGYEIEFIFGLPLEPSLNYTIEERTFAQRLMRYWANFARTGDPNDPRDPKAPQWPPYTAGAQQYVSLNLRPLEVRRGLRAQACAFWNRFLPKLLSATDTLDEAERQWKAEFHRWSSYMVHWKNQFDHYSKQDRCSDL
The experiment can be described thus: Kinetic constant for inhibition of fetal bovine serum acetylcholinesterase. To be noted: for kon: read-out: kon (M-1-s-1).

The values below come from BindingDB's records for doi:10.1016/0960-894X(96)00012-1 (1996).

By kon is commonly meant the rate constant with which the complex forms. Consider `C/C=C1\C2C=C(C)C[C@]1(N)c1ccc(=O)[nH]c1C2(C)C` [(R)-1-Amino-13-ethylidene-8,8,11-trimethyl-6-aza-tricyclo[7.3.1.0*2,7*]trideca-2(7),3,10-trien-5-one], for which the kon came out at 0.013 M⁻¹ s⁻¹. As to `C/C=C1\[C@H]2C=C(C)C[C@@]1(N)c1ccc(=O)[nH]c1C2` [Huperzine A], the “kon (M-1-s-1)” value was 0.05667 M-1-s-1 and the kon was 0.057 M⁻¹ s⁻¹.
